# Reference: publication PMC12017303 (Science Advances, 2025)
# Tests used:
# [1] = test system: SARS-CoV-2 WA.1 (icSARS-CoV-2-mNG) in A549-ACE2^h; assay: microbe, parasite or virus in culture; format: cell-based; conditions: for EC50: Severe acute respiratory syndrome coronavirus 2, read-out: Viral replication in A549-ACE2^h EC50: WA.1
# [2] = test system: SARS-CoV-2 XBB.1.16 in A549-ACE2^h; assay: microbe, parasite or virus in culture; format: cell-based; conditions: Severe acute respiratory syndrome coronavirus 2, read-out: Viral replication in A549-ACE2^h EC50: XBB.1.16
# [3] = test system: SARS-CoV-2 EG.5.1 in A549-ACE2^h; assay: microbe, parasite or virus in culture; format: cell-based; conditions: Severe acute respiratory syndrome coronavirus 2, read-out: Viral replication in A549-ACE2^h EC50: EG.5.1
# [4] = test system: SARS-CoV-2 XBB.1.5 in A549-ACE2^h; assay: microbe, parasite or virus in culture; format: cell-based; conditions: Severe acute respiratory syndrome coronavirus 2, read-out: Viral replication in A549-ACE2^h EC50: XBB.1.5
# [5] = rat, in vivo; cited from earlier work
# [6] = test system: SARS-CoV-2 WA.1 replicon in Vero ACE2 TMPRSS2; assay: microbe, parasite or virus in culture; format: cell-based; conditions: Severe acute respiratory syndrome coronavirus 2, Vero, read-out: Replicon replication in Vero ACE2 TMPRSS2 EC50: WA.1
# [7] = test system: SARS-CoV-2 BA.2.86.1 replicon in Vero ACE2 TMPRSS2; assay: microbe, parasite or virus in culture; format: cell-based; conditions: Severe acute respiratory syndrome coronavirus 2, Vero, read-out: Replicon replication in Vero ACE2 TMPRSS2 EC50: BA.2.86.1
# HCoV Alpha 229E = assay: organism not typed; format: cell-based, HCoV 229E; conditions: Huh-7
# physchem = conditions: pH 7.4, aqueous buffer, kinetic from dmso stock
# SARS-CoV Urbani = assay: microbe, parasite or virus in culture; format: cell-based; conditions: Severe acute respiratory syndrome coronavirus, Vero C1008
# in vitro [8] = conditions: human
# [9] = test system: human cytochrome P450 (CYP) isoforms; conditions: human, pH 7.4
# in vitro [10] = conditions: human, microsomes, pH 7.4
# [11] = test system: SARS-CoV-2 BA.2 (omicron); assay: microbe, parasite or virus in culture; format: cell-based; conditions: Severe acute respiratory syndrome coronavirus 2, Vero C1008
# P-gp (MDR1) = assay: in vitro; conditions: dog
# in vitro [12] = conditions: African green monkey
# SARS-CoV-1 M^Pro = SARS-CoV-1 M^Pro (Severe acute respiratory syndrome coronavirus, UniProt P0C6X7); assay: biochemical
# in vitro [13] = conditions: plasma
# CYP2C8 = CYP2C8 (Homo sapiens, UniProt P10632); conditions: human, pH 7.4
# Chain of CYP2C8 (P10632 whole entry): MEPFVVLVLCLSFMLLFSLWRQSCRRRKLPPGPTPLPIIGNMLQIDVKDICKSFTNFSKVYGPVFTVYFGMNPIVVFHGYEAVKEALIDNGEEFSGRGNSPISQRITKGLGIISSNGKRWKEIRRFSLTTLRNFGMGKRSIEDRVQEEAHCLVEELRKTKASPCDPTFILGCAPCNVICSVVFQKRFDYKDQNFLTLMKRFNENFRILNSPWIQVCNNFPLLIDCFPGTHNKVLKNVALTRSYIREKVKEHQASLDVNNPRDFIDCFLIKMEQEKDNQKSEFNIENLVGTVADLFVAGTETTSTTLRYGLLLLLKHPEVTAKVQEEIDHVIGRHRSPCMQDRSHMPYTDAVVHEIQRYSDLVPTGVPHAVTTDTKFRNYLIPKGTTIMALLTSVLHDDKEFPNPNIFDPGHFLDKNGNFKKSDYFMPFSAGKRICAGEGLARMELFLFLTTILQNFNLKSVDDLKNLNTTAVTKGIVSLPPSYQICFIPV
# SARS-CoV-2 M^Pro = SARS-CoV-2 M^Pro (Severe acute respiratory syndrome coronavirus 2, UniProt P0DTD1); format: biochemical
# [14] = test system: panel of 40 receptors, ion channels (including the hERG channel), and serine and cysteine proteases
# in vivo [15] = conditions: male, CD-1, mouse; for AUC(0-t): AUClast
# [16] = male, CD-1, mouse, in vivo
# MERS-CoV EMC = assay: microbe, parasite or virus in culture; format: cell-based; conditions: Middle East respiratory syndrome-related coronavirus, Vero C1008
# in vivo [17] = conditions: mouse
# in vitro [18] = conditions: PAMPA, pH 7.4
# HAPLN1 = HAPLN1 (Homo sapiens, UniProt P10915); format: binding
# Chain of HAPLN1 (P10915 16-354): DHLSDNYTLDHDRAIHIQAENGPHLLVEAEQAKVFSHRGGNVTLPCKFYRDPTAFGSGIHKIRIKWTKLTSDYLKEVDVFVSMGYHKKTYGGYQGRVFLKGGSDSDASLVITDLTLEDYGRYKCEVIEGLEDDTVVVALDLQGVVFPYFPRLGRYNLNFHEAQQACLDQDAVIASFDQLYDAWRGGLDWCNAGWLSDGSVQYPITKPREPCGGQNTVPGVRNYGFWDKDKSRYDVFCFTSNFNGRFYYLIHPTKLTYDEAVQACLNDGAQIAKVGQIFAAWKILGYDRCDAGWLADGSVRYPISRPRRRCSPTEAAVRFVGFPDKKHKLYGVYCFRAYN
# [19] = test system: SARS-CoV-2 mNeon WA1 in A549-ACE2^h; format: cell-based
# [20] = test system: SARS-CoV-2 mNeon XBB.1.16 in A549-ACE2^h; format: cell-based
# HCoV Beta OC43 = assay: microbe, parasite or virus in culture; format: cell-based; conditions: Betacoronavirus 1, OC43
# [21] = target: SARS-CoV-2 M^Pro (Cys^145) (Severe acute respiratory syndrome coronavirus 2, UniProt P0DTD1); format: binding
# in vitro [22] = conditions: mouse, microsomes, pH 7.4
smiles,measurement,setting,value
"CC(C)(C)[C@H](NC(=O)C(F)(F)F)C(=O)N1C[C@H]2[C@@H]([C@H]1C(=O)N[C@H](C#N)C[C@@H]1CCNC1=O)C2(C)C [nirmatrelvir, reference compound]",EC50,[1],31 nM
same,EC50,[2],41 nM
same,EC50,[3],67 nM
same,EC50,[4],21 nM
same,brain concentrations relative to EC90,[5],only three times the respective EC90 value
same,EC50,[6],620 nM
same,EC50,[7],810 nM
C#CCn1c(C)c(-n2nnc3ccccc32)c(=O)n(-c2cncc3ccccc23)c1=O [AVI-4516],EC50,HCoV Alpha 229E,2900 nM
same,EC90,HCoV Alpha 229E,3500 nM
same,solubility,physchem,347 µM
same,EC50,[1],38 nM
same,EC90,"[1]; Severe acute respiratory syndrome coronavirus 2, read-out: cellular 90% effective concentration (EC90)",97 nM
same,EC50,SARS-CoV Urbani,570 nM
same,EC90,SARS-CoV Urbani,1000 nM
same,EC50,[2],34 nM
same,CC50,in vitro [8],> 100000 nM
same,viability at 100 µM,in vitro [8],90.4%
same,inhibition across the CYP panel,[9],≤ 25%
same,EC50,[3],37 nM
same,half-life,in vitro [10],> 2 h
same,EC50,[11],180 nM
same,EC90,[11],390 nM
same,Papp B→A,P-gp (MDR1); MDCK-MDR1,45.2 ×10⁻⁶ cm/s
same,Papp A→B,"P-gp (MDR1); MDCK-MDR1, MDCK AB",13.3 ×10⁻⁶ cm/s
same,CC50,in vitro [12],> 100000 nM
same,IC50,SARS-CoV-1 M^Pro,55 nM
same,EC50,[4],30 nM
same,fraction unbound,"in vitro [13]; pH 7.4, PPB",0.37
same,fraction unbound,"in vitro [13]; pH 7.4, plasma protein binding (PPB)",0.39
same,CYP2C8 inhibition,CYP2C8,~ 45%
same,M^Pro activity after dialysis,SARS-CoV-2 M^Pro,activity was not regained
same,"off-target activity across panel, result in words",[14],no substantial inhibition or interference with any of the off-targets
same,bioavailability,in vivo [15]; F,174%
same,MRT inf,"in vivo [15]; iv, 10 mg/kg",0.798 h
same,clearance,"in vivo [15]; iv, 10 mg/kg",29 mL/min/kg
same,half-life,"in vivo [15]; iv, 10 mg/kg",0.866 h
same,AUC(0-inf),"in vivo [15]; iv, 10 mg/kg, AUCINF",5740 ng·h/mL
same,AUC(0-t),"in vivo [15]; iv, 10 mg/kg",5730 ng·h/mL
same,Vd,"in vivo [15]; iv, 10 mg/kg, Vss",1.39 L/kg
same,bioavailability,in vivo [15]; oral bioavailability (%F),> 100%
same,half-life,"in vivo [15]; po, 50 mg/kg",4.7 h
same,AUC(0-inf),"in vivo [15]; po, 50 mg/kg, AUCINF",69500 ng·h/mL
same,AUC(0-inf),"in vivo [15]; po, 50 mg/kg, AUCinf",69500 ng·h/mL
same,AUC(0-t),"in vivo [15]; po, 50 mg/kg",49900 ng·h/mL
same,Cmax,"in vivo [15]; po, 50 mg/kg, CMax",10100 ng/mL
same,Cmax,"in vivo [15]; po, 50 mg/kg, Cmax",10100 ng/mL
same,Tmax,"in vivo [15]; po, 50 mg/kg, TMax",1 h
same,Tmax,"in vivo [15]; po, 50 mg/kg, Tmax",1 h
same,Mouse F,[16],57
same,free concentration in plasma,[16],2615 nM
same,AUClast,"[16]; po, 50 mg/kg",49900 ng·h/mL
same,Plasma T½,"[16]; po, 50 mg/kg",4.7 h
same,EC50,MERS-CoV EMC,< 32 nM
same,EC50,[6],160 nM
same,Kp,in vivo [17],~0.05
same,Papp,in vitro [18],22.4 ×10⁻⁶ cm/s
same,increase in Tm of HAPLN1,HAPLN1,5.77 °C
same,EC50,[7],130 nM
same,synergy with molnupiravir (ZIP analysis),[19],a minor effect was observed in the direction of positive synergy
same,synergy with molnupiravir (ZIP analysis),[20],synergy was observed at several concentrations
same,EC50,HCoV Beta OC43,590 nM
same,EC90,HCoV Beta OC43,520 nM
same,covalent adduct by whole protein MS,[21],single modification consistent with the mass of AVI-4516
same,half-life,in vitro [22],> 2 h
